Data: patent publication US7241795B2, “Synthesis and antimicrobial activity of novel dicationic “reversed amidines”” (The University of North Carolina at Chapel Hill, priority 2000, dated 2007)
Values after ≈ are worked out from the molar mass of the structure shown. Like-named read-outs stand apart in the source and are kept apart here.

Key:
M. tuberculosis H37Rv = assay: Microplate Alamar Blue Assay (MABA) in BACTEC 12B medium; format: cell-based, Mycobacterium tuberculosis; conditions: Mycobacterium tuberculosis, H37RV; lowest concentration effecting ≧90% reduction of fluorescence; read-out: MTb MIC
Aspergillus flavus = assay: Expanded fungus panel, broth macrodilution (MIC/MFC), mold; format: cell-based; conditions: for MIC: Aspergillus flavus, 100% of inoculum inhibited
Crytococcus neoformans = assay: Expanded fungus panel, broth macrodilution (MIC/MFC), yeast; format: cell-based; conditions: Cryptococcus neoformans, Crytococcus neoformans isolate H99
d(CGCGAATTCGCG)2 = assay: DNA thermal melting (ΔTm); format: binding; conditions: oligo = d(CGCGAATTCGCG)2
Candida albicans = assay: Antifungal broth macrodilution susceptibility testing (MIC/MFC), yeast; format: cell-based; conditions: for MIC80 / MIC / MFC: Candida albicans; for MIC80: 80% of inoculum inhibited
poly dA•dT = assay: DNA thermal melting (ΔTm); format: binding
Fusarium solani = assay: Expanded fungus panel, broth macrodilution (MIC/MFC), mold; format: cell-based
Rhizopus arrhizus = assay: as above; format: cell-based
Aspergillus fumigatus = assay: Antifungal broth macrodilution susceptibility testing (MIC/MFC), mold; format: cell-based; conditions: for MIC80: 80% of inoculum inhibited
other pathogenic fungi = assay: Expanded fungus panel, overall; format: cell-based
Method: Antifungal Test Organisms. The fungi used in this study for all the compounds in Table 1 included two reference strains C. albicans A39 and Aspergillus fumigatus (strain 168.95).
Medium. Antifungal susceptibility testing was performed with RPMI 1640 medium (Sigma Chemical Co., St. Louis, Mo.) with glutamine, but without sodium bicarbonate and buffered at pH 7.0 with 0.165 M morpholinopropanesulfonic acid.
Antifungal In Vitro Susceptibility Testing. Experiments for determination of MICs of yeasts were performed by the broth macrodilution method according to the recommendations of the National Committee for Clinical Laboratory Standards. See National Committee for Clinical Laboratory Standards. Reference method for broth dilution susceptibility testing of yeasts Document M27-T. Tentative standard, National Committee for Clinical Laboratory Standards, Wayne, Pa., 1995). […] Briefly, this method specifies the use of an inoculum grown at 35° C. and adjusted to a concentration of 0.5×10^3 to 2.5×10^3 CFU/ml, incubation of the culture at 35° C., and reading at 48 h for all yeasts except for C. neoformans, for which the results are interpreted at 72 h. […]
The minimum fungicidal concentration (MFC) was determined by plating 100 μl aliquots from tubes showing complete inhibition of growth on Sabouraud agar plates. The lowest drug concentration that yielded three or fewer colonies was recorded as the MFC. […]

[1] = Aspergillus flavus isolate 107.96
[2] = Aspergillus flavus isolate 141.88
[3] = reference strain C. albicans A39, read-out: C. albicans MFC
[4] = reference strain C. albicans A39, read-out: C. albicans MIC
[5] = Aspergillus fumigatus, strain 168.95, read-out: Aspergillus fumigatus MIC

## Cc1ccc(N=Nc2ccc(-c3ccc(-c4ccc(N=Nc5ccc(C)cn5)cc4C)o3)c(C)c2)nc1 [Compound 6j, 2,5-Bis[2-methyl-4-(5-methyl-2-pyridylimino)aminophenyl]furan]
M. tuberculosis H37Rv
  MIC: 1 to 2 µg/mL (≈ 2.06 to 4.11 µM)
Aspergillus flavus
  activity versus Aspergillus flavus, in words: less effective
Aspergillus flavus; [1]
  MFC: >100 µg/mL
  MIC: 50 µg/mL (≈ 103 µM)
Aspergillus flavus; Aspergillus flavus isolate 107.96, 80% of inoculum inhibited
  MIC 80%: 3.12 µg/mL (≈ 6.41 µM)
Aspergillus flavus; [2]
  MFC: >100 µg/mL
  MIC: 50 µg/mL (≈ 103 µM)
Aspergillus flavus; Aspergillus flavus isolate 141.88, 80% of inoculum inhibited
  MIC 80%: 3.12 µg/mL (≈ 6.41 µM)
Aspergillus flavus; Aspergillus flavus isolate 194.99, 80% of inoculum inhibited
  MIC80: 3.12 µg/mL (≈ 6.41 µM)
Aspergillus flavus; Aspergillus flavus isolate 194.99, read-out: MFC
  MFC: > 100 µg/mL
Aspergillus flavus; Aspergillus flavus isolate 194.99
  MIC: 6.25 µg/mL (≈ 12.8 µM)
Crytococcus neoformans
  MFC: > 100 µg/mL
Crytococcus neoformans; 80% of inoculum inhibited
  MIC80: 1.56 µg/mL (≈ 3.21 µM)
Crytococcus neoformans; 100% of inoculum inhibited
  MIC: 1.56 µg/mL (≈ 3.21 µM)
d(CGCGAATTCGCG)2
  DNA Affinities ΔTm (oligo): 10.8
Candida albicans
  activity against C. albicans, in words: quite effective
Candida albicans; Candida albicans isolate 116.98
  MIC80: 1.56 µg/mL (≈ 3.21 µM)
Candida albicans; Candida albicans isolate 116.98, 100% of inoculum inhibited, read-out: MIC 100%
  MIC: 1.56 µg/mL (≈ 3.21 µM)
Candida albicans; Candida albicans isolate 116.98, read-out: MFC
  MFC: > 100 µg/mL
Candida albicans; Candida albicans isolate 117.00
  MIC80: 0.78 µg/mL (≈ 1.6 µM)
Candida albicans; Candida albicans isolate 117.00, 100% of inoculum inhibited, read-out: MIC 100%
  MIC: 3.12 µg/mL (≈ 6.41 µM)
Candida albicans; Candida albicans isolate 117.00, read-out: MFC
  MFC: 25 µg/mL (≈ 51.4 µM)
Candida albicans; Candida albicans isolate 126.97
  MIC80: 1.56 µg/mL (≈ 3.21 µM)
Candida albicans; Candida albicans isolate 126.97, 100% of inoculum inhibited, read-out: MIC 100%
  MIC: 3.12 µg/mL (≈ 6.41 µM)
Candida albicans; Candida albicans isolate 126.97, read-out: MFC
  MFC: 3.12 µg/mL (≈ 6.41 µM)
Candida albicans; Candida albicans isolate 149.97
  MIC80: 0.78 µg/mL (≈ 1.6 µM)
Candida albicans; Candida albicans isolate 149.97, 100% of inoculum inhibited, read-out: MIC 100%
  MIC: 1.56 µg/mL (≈ 3.21 µM)
Candida albicans; Candida albicans isolate 149.97, read-out: MFC
  MFC: 6.25 µg/mL (≈ 12.8 µM)
Candida albicans; Candida albicans isolate 156.97
  MIC80: 1.56 µg/mL (≈ 3.21 µM)
Candida albicans; Candida albicans isolate 156.97, 100% of inoculum inhibited, read-out: MIC 100%
  MIC: 3.15 µg/mL (≈ 6.47 µM)
Candida albicans; Candida albicans isolate 156.97, read-out: MFC
  MFC: > 100 µg/mL
Candida albicans; Candida albicans isolate 159.95
  MIC80: 0.79 µg/mL (≈ 1.62 µM)
Candida albicans; Candida albicans isolate 159.95, 100% of inoculum inhibited, read-out: MIC 100%
  MIC: 1.58 µg/mL (≈ 3.25 µM)
Candida albicans; Candida albicans isolate 159.95, read-out: MFC
  MFC: 3.12 µg/mL (≈ 6.41 µM)
Candida albicans; Candida albicans isolate A39
  MIC80: 1.56 µg/mL (≈ 3.21 µM)
Candida albicans; Candida albicans isolate A39, 100% of inoculum inhibited, read-out: MIC 100%
  MIC: 1.56 µg/mL (≈ 3.21 µM)
Candida albicans; Candida albicans isolate A39, expanded panel, read-out: MFC
  MFC: 25 µg/mL (≈ 51.4 µM)
Candida albicans; read-out: C. albicans MIC
  MIC: ≤ 1 µg/mL
Candida albicans; [3]
  MFC: 10 µg/mL (≈ 20.6 µM)
Candida albicans; [4]
  MIC: ≤ 2 µg/mL
Poly dA•dT
  DNA Affinities ΔTm (AT): 24.3
Fusarium solani
  activity against Fusarium solani, in words: not very effective
Fusarium solani; Fusarium solani isolate 152.89
  MFC: 50 µg/mL (≈ 103 µM)
Fusarium solani; Fusarium solani isolate 152.89, 80% of inoculum inhibited
  MIC80: 3.12 µg/mL (≈ 6.41 µM)
Fusarium solani; Fusarium solani isolate 152.89, 100% of inoculum inhibited
  MIC: 50 µg/mL (≈ 103 µM)
Rhizopus arrhizus
  activity versus Rhizopus arrhizus, in words: good fungicidal activity
Rhizopus arrhizus; Rhizopus arrhizus isolate 117.89
  MFC: 1.56 µg/mL (≈ 3.21 µM)
Rhizopus arrhizus; Rhizopus arrhizus isolate 117.89, 80% of inoculum inhibited
  MIC80: 0.78 µg/mL (≈ 1.6 µM)
Rhizopus arrhizus; Rhizopus arrhizus isolate 117.89, 100% of inoculum inhibited
  MIC: 1.56 µg/mL (≈ 3.21 µM)
Aspergillus fumigatus
  activity against Aspergillus fumigatus, in words: less effective
Aspergillus fumigatus; Aspergillus fumigatus isolate 119.00, read-out: MFC
  MFC: > 100 µg/mL
Aspergillus fumigatus; Aspergillus fumigatus isolate 153.90
  MFC: >100 µg/mL
Aspergillus fumigatus; Aspergillus fumigatus isolate 165.86
  MFC: >100 µg/mL
Aspergillus fumigatus; Aspergillus fumigatus isolate 168.95, expanded panel
  MFC: >100 µg/mL
Aspergillus fumigatus; Aspergillus fumigatus isolate 182.99
  MFC: >100 µg/mL
Aspergillus fumigatus; Aspergillus fumigatus, Aspergillus fumigatus isolate 119.00
  MIC80: 3.12 µg/mL (≈ 6.41 µM)
Aspergillus fumigatus; Aspergillus fumigatus, Aspergillus fumigatus isolate 119.00, 100% of inoculum inhibited, read-out: MIC 100%
  MIC: 50 µg/mL (≈ 103 µM)
Aspergillus fumigatus; Aspergillus fumigatus, Aspergillus fumigatus isolate 153.90
  MIC80: 3.12 µg/mL (≈ 6.41 µM)
Aspergillus fumigatus; Aspergillus fumigatus, Aspergillus fumigatus isolate 153.90, 100% of inoculum inhibited, read-out: MIC 100%
  MIC: 50 µg/mL (≈ 103 µM)
Aspergillus fumigatus; Aspergillus fumigatus, Aspergillus fumigatus isolate 165.86
  MIC80: 50 µg/mL (≈ 103 µM)
Aspergillus fumigatus; Aspergillus fumigatus, Aspergillus fumigatus isolate 165.86, 100% of inoculum inhibited, read-out: MIC 100%
  MIC: 50 µg/mL (≈ 103 µM)
Aspergillus fumigatus; Aspergillus fumigatus, Aspergillus fumigatus isolate 168.95
  MIC80: 50 µg/mL (≈ 103 µM)
Aspergillus fumigatus; Aspergillus fumigatus, Aspergillus fumigatus isolate 168.95, 100% of inoculum inhibited, read-out: MIC 100%
  MIC: 50 µg/mL (≈ 103 µM)
Aspergillus fumigatus; Aspergillus fumigatus, Aspergillus fumigatus isolate 182.99
  MIC80: 3.12 µg/mL (≈ 6.41 µM)
Aspergillus fumigatus; Aspergillus fumigatus, Aspergillus fumigatus isolate 182.99, 100% of inoculum inhibited, read-out: MIC 100%
  MIC: 50 µg/mL (≈ 103 µM)
Aspergillus fumigatus; [5]
  MIC: 10 µg/mL (≈ 20.6 µM)

## COc1cc(N=Nc2ccccn2)ccc1-c1ccc(-c2ccc(N=Nc3ccccn3)cc2OC)o1 [Compound 6k, 2,5-Bis[2-methoxy-4-(2-pyridylimino)aminophenyl]furan]
M. tuberculosis H37Rv
  MIC: 1 to 2 µg/mL (≈ 2.04 to 4.08 µM)
d(CGCGAATTCGCG)2
  DNA Affinities ΔTm (oligo): 7.8
Candida albicans
  activity against C. albicans, in words: fungicidal
Candida albicans; read-out: C. albicans MIC
  MIC: ≤ 1 µg/mL
Candida albicans; [3]
  MFC: ≤ 1 µg/mL
Candida albicans; [4]
  MIC: ≤ 2 µg/mL
Other pathogenic fungi
  activity in the expanded fungus panel, in words: did not show significant activity
Poly dA•dT
  DNA Affinities ΔTm (AT): 19.0
Aspergillus fumigatus
  activity against Aspergillus fumigatus, in words: fungicidal
Aspergillus fumigatus; Aspergillus fumigatus, read-out: Aspergillus fumigatus MIC
  MIC: ≤ 1 µg/mL
Aspergillus fumigatus; Aspergillus fumigatus, strain 168.95, read-out: Aspergillus fumigatus MFC
  MFC: ≤ 1 µg/mL
Aspergillus fumigatus; [5]
  MIC: 1 µg/mL (≈ 2.04 µM)
